# Details: buffer; pH 7.4; 200.0 µM
row,Compound,solubility kinetic [µg/mL]
1,CCOC(=O)C1(Cc2cccc(F)c2)CCN(CC(O)CO)CC1 (centres undefined),43.3
2,CC(O/N=C(\N)c1ccccc1)C(=O)Nc1cccc(C(F)(F)F)c1 (centres undefined),> 52.7
3,CCCCOC(=O)C1=C(C)NC(=O)NC1c1ccccc1 (centres undefined),13.5
4,Cc1ccc(CCC(=O)Nc2ccc(C#N)cc2)o1,37
5,CCN(CC(=O)NCc1ccc(F)cc1)C(=O)COc1ccccc1[N+](=O)[O-],> 58.4
6,COc1ccc(CNC(=O)CN(C)S(=O)(=O)c2ccccc2)cc1,> 52.3
7,CC1CCCN(C(=O)c2ccc(-c3ccccc3Cl)o2)C1 (centres undefined),10
8,CCCCCCC(O)(CCN1CCCCC1)c1ccccc1.Cl (centres undefined),49.3
9,CCOc1ccc(NC(=O)C(CC(=O)O)Cc2ccc(C)cc2)cc1 (centres undefined),> 51.2
10,CSc1ccccc1NC(=O)COC(=O)CCc1ccccc1,27.8
11,O=C(COC(=O)c1ccc(Cl)nc1)Nc1cc(S(=O)(=O)N2CCOCC2)ccc1Cl,50.6
12,O=C(Oc1c(-c2ccccc2)c(=O)n2c3c(cccc13)CC2)c1ccc(F)cc1,< 0.8
13,OC1CCN(Cc2ccc(OCc3ccccc3)cc2)CC1,> 44.6
14,Cc1ccc(CN2C(=O)C3CCCN3c3ncccc32)cc1 (centres undefined),33.3
15,Cc1ccc(OCCn2c(=O)oc3ccc(C)cc32)cc1,< 0.6
16,Cc1[nH]c2ccc(OCc3ccccc3)cc2c1CCN.Cl,> 47.5
17,COCc1cc(=O)[nH]c2cc(NC(=O)c3cccc(OC)c3)c(C)cc12,1.1
18,CCCCN1C(=O)c2ccc(C(=O)NCc3ccco3)cc2C1=O,17.9
19,COc1ccc(N2CCN(C(=O)c3cccc(S(=O)(=O)N4CCc5ccccc54)c3)CC2)cc1,7.1
20,Cc1ccc(C(=O)CSc2nc(O)cc(=O)[nH]2)cc1C,> 43.6

row,Compound,solubility kinetic [µg/mL]
1,CS(=O)(=O)c1cccc(C(=O)OCC(=O)NC(=O)Nc2ccccc2F)c1,5.2
2,Cc1nn(C)c(Oc2ccccc2)c1CCNC(=O)C(C)(C)C,> 47.3
3,O=C(Nc1ccc(N2CCOCC2)cc1)c1ccc([N+](=O)[O-])o1,13.2
4,O=C(Nc1ccc2oc(-c3ccncc3)nc2c1)c1ccco1,12.7
5,Cc1cnc(C(=O)OCC(=O)c2ccc(C)s2)cn1,41.1
6,Cc1ccc(C)c(NC(=S)N2CCCC2)c1,> 35.2
7,S=c1[nH]ccn1-c1cccc(Cl)c1Cl,> 36.8
8,CCCCNC(=O)CN1C(=O)NC(CCc2ccccc2)C1=O (centres undefined),33.8
9,CCOC(=O)C1=C(CC)Nc2ccccc2N=C1NC(=O)c1cc(S(=O)(=O)N2CCOCC2)ccc1C,50.8
10,Cc1nc(N)sc1-c1csc(Nc2cccc(O)c2)n1,34.1
11,CN1CCN(C(=S)c2ccc(-c3cccc([N+](=O)[O-])c3)o2)CC1,43.3
12,CS(=O)(=O)N(CC(=O)N1CCCCC1)Cc1ccccc1,> 46.6
13,CN(C)Cc1nc2ccccc2c(=O)n1CC#N,> 36.3
14,Cc1cc(C(=O)Nc2ccccc2Cc2ccccc2)no1,2.8
15,COC(=O)c1ccc(N2CCN(C(=O)C3CC3)CC2)c([N+](=O)[O-])c1,> 50
16,Cc1ccc(N(CC(=O)NC(C)(C)C)C(=O)CCC(=O)Nc2nccs2)cc1C,12.2
17,COc1cc([N+](=O)[O-])ccc1NC(=O)NCc1cccnc1,17
18,COCCCNC(=O)c1ccc(CN2CCc3ccccc3C2)cc1,> 50.8
19,Cc1ccc(C(=O)C[n+]2cccc3cc(C)ccc32)cc1.[Br-],43.8
20,CCOc1ccccc1NC(=O)N1CCc2ccccc2C1,33.1

row,Compound,solubility kinetic [µg/mL]
1,COc1ccc(NC(=O)c2cccnc2)cc1OCC(C)C,27.2
2,CC(C)(C)c1cc(CCC(=O)NCc2cccnc2)cc(C(C)(C)C)c1O,36.5
3,CCOc1ccc(NS(=O)(=O)c2cc(C)c(C)cc2C)cc1,10.2
4,O=S(=O)(Nc1ccc(F)cc1)N1CCOCC1,> 39
5,O=C(c1cc2cc(F)ccc2[nH]1)N1CCc2ccccc2C1,0.9
6,CC1Cc2ccccc2N1C(=S)NC1CCCC1 (centres undefined),13.7
7,CCCN1C2CCCC1CC(NC(=O)c1cccc(OC)c1)C2 (centres undefined),> 47.5
8,Nc1nc(NCCN2CCOCC2)nc(NCc2ccccc2)c1[N+](=O)[O-],12
9,c1ccc(C2Nc3ccccc3C3OCCCC23)cc1 (centres undefined),7.3
10,Cc1ccc2c(c1)c1c3n2CCN(C=O)C3CCC1 (centres undefined),28.1
11,O=C(Nc1ccccc1F)C(c1ccccc1)c1ccccc1,< 0.7
12,Cc1ccc(C)c(C(=O)CN2C(=O)c3ccccc3C2=O)c1,0.9
13,O=C1CCN(S(=O)(=O)c2ccc(Cl)cc2)CCN1,> 43.3
14,Cc1ccc(C(=O)N2CCN=C2SCc2ccc([N+](=O)[O-])cc2)cc1C,0.3
15,O=S(=O)(c1ccc(Cl)cc1)N1CCN(c2ncnc3sccc23)CC1,7
16,CCCCC#Cc1cncc(C(=O)NN)c1,> 32.6
17,O=C(CN1C(=O)COc2ccccc21)NCCCN1CCOCC1,> 50
18,Cc1c(C(=O)N2CCC2)oc2c(F)cccc12,30.3
19,Cc1nnc(-c2cnn(C)c2N)n1CCCN1CCOCC1,> 45.8

# Source: PubChem BioAssay AID1996
